{
  "source": "patent US10874600B2",
  "about": "“Method for degrading bilirubin in skin” (The Procter & Gamble Company, priority 2018, dated 2020)",
  "experiment": "Bilirubin degradation assay",
  "format": "biochemical",
  "conditions": "for Avg. IB at pH 3.8 / Avg. IB at pH 7.4: 25 μg/mL IB, 24-hr incubation at room temperature, average of triplicate; for Δ IB (actual): pH 3.8 vs reference value (pH 7.4, 0% niacinamide leg); for Δ IB (predicted): predicted additive effect of niacinamide at pH 7.4 plus observed pH effect 2.323",
  "experimental": "The bilirubin degradation assay provides an in vitro method of determining how a material or composition affects bilirubin degradation. Three replicates of each test sample are prepared in a 96-well plate (e.g., a FALCON brand 96-well tissue culture plate or equivalent) at a total volume of 250 μl/well. A stock of 250 ug/ml indirect bilirubin (i.e., the unconjugated form of bilirubin most commonly found in blood serum) is made by dissolving bilirubin powder (Cayman Chemicals Company, Catalog #17161) in DMSO (Sigma, Catalog # D8414-100 ml) to yield a stock solution at 10× working concentration. Working concentration of bilirubin is set at 25 ug/ml for every well except negative/vehicle control wells. […] The positive control wells may be prepared by mixing 25 ul of 250 ug/ml bilirubin stock solution and 225 ul PBS (AccuGENE, Catalog #51225). For negative/vehicle control wells, 25 ul DMSO is used in place of bilirubin. Test sample wells contain 25 ul of 250 ug/ml bilirubin stock solution, 200 ul PBS and 25 ul of each treatment solution made as 10× concentrate stock, e.g., for 0.1% Niacinamide treatment, a 10× concentrate stock is made at 1%.\nThe pH of each sample is adjusted using 1M HCl pH titration is performed separately before the experiment set up to determine how much 1M HCl is needed for each leg to achieve targeting pH level. 1500 ul of a master working solution of each testing leg was made without bilirubin to accommodate threshold volume need for pH adjustment. The master solution for the vehicle control wells contain 150 ul DMSO and 1350 ul of a mixture of 1M HCl and PBS. […] Bilirubin is unstable when exposed to ambient light. Thus, for bilirubin positive control well pre-titration, DMSO was used as surrogate for bilirubin. […] For pre-titration test sample wells, 1500 ul of master solution is made by mixing 150 ul DMSO (surrogate for bilirubin stock), 150 ul 10× treatment stock, and a 1200 ul mixture of 1M HCl and PBS. For actual experimental set up, make: 1350 ul pre-mix in triplicate for each leg, less either DMSO (for vehicle control leg) or bilirubin (for positive control and treatment legs) but with matching volume of all other ingredients as determined by pre-titration. Then for vehicle control leg, add 25 ul DMSO per well followed by adding in 225 ul of the pre-mix. For all other legs, add 25 ul of 250 ug/ml bilirubin stock made in DMSO per well followed by adding in 225 ul of corresponding pre-mix. […] The plate(s) containing the test samples are covered with aluminum foil and placed on top of a microplate shaker (VWR, Catalog #12620-938). Incubation was carried out at room temperature for 24-hr with constant shaking at 150 rpm. […] Commercially available bilirubin quantification kit (Cell Biolab, Catalog # MET-5010) was used for bilirubin quantification. The assay is based on the Jendrassik-Grof method in which diazotized sulfanilic acid reacts with bilirubin to form azobilirubin, the latter of which can be detected at an OD of 540 nm. A standard bilirubin curve is generated using the same bilirubin used for treatment and quantified.\nBilirubin concentrations of all testing legs are calculated using linear regression against the standard bilirubin curve. Resulting bilirubin concentrations are compared to neutral pH bilirubin reference leg. The difference in bilirubin quantification (A bilirubin) between the neutral-pH bilirubin reference leg and the low-pH niacinamide treated legs can be analyzed for predicted effect and actual effect.\nThe effect of niacinamide level on bilirubin degradation was tested at 0.1%, 0.5%, and 3%, by weight, based on the volume of the composition (w/v). A vehicle control is used in this Example as the negative control.",
  "data": [
    {"smiles": "NC(=O)c1cccnc1", "note": "[niacinamide]", "values": [
      {"measurement": "Avg. IB at pH 3.8", "setting": "0.1% (w/v) niacinamide", "value": 17.713, "unit": "μg/mL"},
      {"measurement": "Avg. IB at pH 7.4", "setting": "0.1% (w/v) niacinamide", "value": 20.851, "unit": "μg/mL"},
      {"measurement": "Δ IB (actual)", "setting": "0.1% (w/v) niacinamide", "value": 3.405},
      {"measurement": "Δ IB (predicted)", "setting": "0.1% (w/v) niacinamide", "value": 2.590},
      {"measurement": "Avg. IB at pH 3.8", "setting": "0.5% (w/v) niacinamide", "value": 14.231, "unit": "μg/mL"},
      {"measurement": "Avg. IB at pH 7.4", "setting": "0.5% (w/v) niacinamide", "value": 20.185, "unit": "μg/mL"},
      {"measurement": "Δ IB (actual)", "setting": "0.5% (w/v) niacinamide", "value": 6.887},
      {"measurement": "Δ IB (predicted)", "setting": "0.5% (w/v) niacinamide", "value": 3.256},
      {"measurement": "Avg. IB at pH 3.8", "setting": "3% (w/v) niacinamide", "value": 9.585, "unit": "μg/mL"},
      {"measurement": "Avg. IB at pH 7.4", "setting": "3% (w/v) niacinamide", "value": 17.087, "unit": "μg/mL"},
      {"measurement": "Δ IB (actual)", "setting": "3% (w/v) niacinamide", "value": 11.533},
      {"measurement": "Δ IB (predicted)", "setting": "3% (w/v) niacinamide", "value": 6.354},
      {"measurement": "reduction in bilirubin in the low-pH composition compared with predicted", "setting": "niacinamide in low-pH composition vs observed individual effects of pH and niacinamide level", "value": "much higher level than predicted"}
    ]}
  ]
}
